From ChEMBL document CHEMBL3580639, “Bioactive Limonoid Constituents of Munronia henryi” (J Nat Prod, 2015)
In brackets after ≈: the same amount, converted by molar mass.

Key:
Tobacco mosaic virus [1] = experiment: Antiviral activity against TMV U1 infected on 20 mins compound treated fresh leaves from 5 to 6 growth stage Nicotiana glutinosa assessed as inhibition of virus growth at 50 ug/ml cultured at 25 degC for 72 hrs by half-leaf method; type: functional; details: U1, in Nicotiana glutinosa
Tobacco mosaic virus [2] = experiment: Antiviral activity against 30 mins compound pre-treated TMV U1 infected on Nicotiana glutinosa leaves assessed as virus inactivation effect by measuring local lesion numbers after 3 to 4 days post virus inoculation at 50 ug/ml by half-leaf method; type: functional; details: U1, in Nicotiana glutinosa
Tobacco mosaic virus [3] = experiment: Antiviral activity against TMV U1 infected on compound smeared Nicotiana glutinosa leaves assessed as virus infection protective effect by measuring local lesion numbers after 3 to 4 days post virus inoculation at 200 ug/ml by half-leaf method; type: functional; details: U1, in Nicotiana glutinosa
Tobacco mosaic virus [4] = experiment: Antiviral activity against TMV U1 infected on Nicotiana glutinosa leaves smeared with virus before compound treatment assessed as virus infection curative effect by measuring local lesion numbers after 3 to 4 days post virus inoculation at 200 ug/ml by half-leaf method; type: functional; details: U1, in Nicotiana glutinosa
Tobacco mosaic virus [5] = experiment: Antiviral activity against 30 mins compound pre-treated TMV U1 infected on Nicotiana glutinosa leaves assessed as virus inactivation effect by measuring local lesion numbers after 3 to 4 days post virus inoculation at 50 ug/ml by half-leaf method relative to untreated control; type: functional; details: U1, in Nicotiana glutinosa
Tobacco mosaic virus [6] = experiment: Antiviral activity against 30 mins compound pre-treated TMV U1 infected on Nicotiana glutinosa leaves assessed as virus inactivation effect by measuring local lesion numbers after 3 to 4 days post virus inoculation at 40 ug/ml by half-leaf method relative to untreated control; type: functional; details: U1, in Nicotiana glutinosa
Tobacco mosaic virus [7] = experiment: Antiviral activity against 30 mins compound pre-treated TMV U1 infected on Nicotiana glutinosa leaves assessed as virus inactivation effect by measuring local lesion numbers after 3 to 4 days post virus inoculation at 30 ug/ml by half-leaf method relative to untreated control; type: functional; details: U1, in Nicotiana glutinosa
Tobacco mosaic virus [8] = experiment: Antiviral activity against 30 mins compound pre-treated TMV U1 infected on Nicotiana glutinosa leaves assessed as virus inactivation effect by measuring local lesion numbers after 3 to 4 days post virus inoculation at 20 ug/ml by half-leaf method relative to untreated control; type: functional; details: U1, in Nicotiana glutinosa
Tobacco mosaic virus [9] = experiment: Antiviral activity against 30 mins compound pre-treated TMV U1 infected on Nicotiana glutinosa leaves assessed as virus inactivation effect by measuring local lesion numbers after 3 to 4 days post virus inoculation at 10 ug/ml by half-leaf method relative to untreated control; type: functional; details: U1, in Nicotiana glutinosa
Tobacco mosaic virus [10] = experiment: Antiviral activity against 30 mins compound pre-treated TMV U1 infected on Nicotiana glutinosa leaves assessed as virus inactivation effect by measuring local lesion numbers after 3 to 4 days post virus inoculation by half-leaf method relative to untreated control; type: functional, organism-based
HL-60 = experiment: Cytotoxicity against human HL60 cells incubated for 48 hrs by MTT assay; type: functional, cell-based; details: HL-60, 48 h
SMMC-7721 = experiment: Cytotoxicity against human SMMC7721 cells incubated for 48 hrs by MTT assay; type: functional, cell-based; details: SMMC-7721, 48 h
A549 = experiment: Cytotoxicity against human A549 cells incubated for 48 hrs by MTT assay; type: functional, cell-based; details: A549, 48 h
MCF7 = experiment: Cytotoxicity against human MCF7 cells incubated for 48 hrs by MTT assay; type: functional, cell-based; details: MCF7, 48 h
SW480 = experiment: Cytotoxicity against human SW480 cells incubated for 48 hrs by MTT assay; type: functional, cell-based; details: SW480, 48 h

Structure (SMILES)	inhibition at 50 µg/mL (Tobacco mosaic virus [1]) [%]	inhibition at 50 µg/mL (Tobacco mosaic virus [2]) [%]	inhibition at 200 µg/mL (Tobacco mosaic virus [3]) [%]	inhibition at 200 µg/mL (Tobacco mosaic virus [4]) [%]	inhibition at 50 µg/mL (Tobacco mosaic virus [5]) [%]	inhibition at 40 µg/mL (Tobacco mosaic virus [6]) [%]	inhibition at 30 µg/mL (Tobacco mosaic virus [7]) [%]	inhibition at 20 µg/mL (Tobacco mosaic virus [8]) [%]	inhibition at 10 µg/mL (Tobacco mosaic virus [9]) [%]	IC50 (Tobacco mosaic virus [10]) [µg/mL]	IC50 (HL-60) [µM]	IC50 (SMMC-7721) [µM]	IC50 (A549) [µM]	IC50 (MCF7) [µM]	IC50 (SW480) [µM]
CC(=O)O[C@H]1C[C@@H]2[C@@]3(C)[C@@H](OC(C)=O)CC(=O)OC(C)(C)[C@@H]3CC[C@@]2(C)C2=CC[C@@H](c3ccoc3)[C@@]21C	89	81.8	36.4	29.9	83.6	73.7	63.4	38.1	20.3	27.7 (≈ 54 µM)	> 10	> 10	> 10	> 10	> 10
CC(=O)O[C@H]1C(=O)[C@@]2(C)[C@H]([C@H](OC(=O)c3ccccc3)[C@]3(O)C[C@H](OC(=O)[C@H](O)[C@@H](NC(=O)c4ccccc4)c4ccccc4)C(C)=C1C3(C)C)[C@]1(OC(C)=O)CO[C@@H]1C[C@@H]2O [PACLITAXEL]											< 0.008	< 0.008	< 0.008	< 0.008	< 0.008
C/C=C(\C)C(=O)O[C@H]1C[C@@H](OC(C)=O)[C@@]2(C)CO[C@H]3[C@@H](O)[C@]4(C)[C@H](CC(OC)O[C@H]5C[C@@H](c6ccoc6)C(C)[C@H]54)[C@]1(C)[C@@H]32 (stereo partly specified)	43.9	31.5	50	53.6							> 10	> 10	> 10	> 10	> 10
C=C1[C@@H]([C@@]2(C)C=CC(=O)OC(C)(C)[C@@H]2CC(=O)OC)[C@@H](OC(C)=O)[C@H](OC(C)=O)[C@@]2(C)[C@H](C(=O)O)C[C@H]3O[C@]132	30.7	32.5	30.5	27.3							> 10	> 10	> 10	> 10	> 10
CNCC(=O)N[C@@H](CO)C(=O)N[C@H]1[C@H](O)[C@@H](O)[C@H](n2ccc(N)nc2=O)O[C@@H]1C(N)=O [NINGNANMYCIN]	69.2	58.9	50.2	40.7	57.3	38.6	33.9	20.8	17.9	44.6 (≈ 101 µM)					
COC(=O)C[C@@H]1C(C)=C/C(=C\C2=C[C@@H](OC(C)=O)[C@H](OC(C)=O)[C@]3(C)C2=CC[C@H]3c2ccoc2)C(=O)OC1(C)C	30.1	27.6	28.3	27.9							> 10	> 10	> 10	> 10	> 10
C/C=C(\C)C(=O)O[C@@H]1[C@@H]2OC[C@]3(C)[C@H](OC(C)=O)C[C@H](O)[C@@](C)([C@@H]23)[C@H]2CCO[C@H]3C[C@@H](C4=CCOC4=O)C(C)=C3[C@]12C [CHISONIMBOLININ F]	44.5	34.1	17.3	20.5							> 10	> 10	> 10	> 10	> 10
CC(=O)O[C@@H]1[C@H](O)[C@H]2C(C)(C)[C@H](OC(C)=O)C[C@H](OC(C)=O)[C@]2(C)[C@H]2CC[C@]3(C)C(=CC[C@H]3c3ccoc3)[C@]12C	18.5	21.2	19.4	15.4							> 10	> 10	> 10	> 10	> 10
C=C1[C@@H]([C@@]2(C)C=CC(=O)O[C@](C)(COC(C)=O)[C@@H]2CC(=O)OC)[C@@H](OC=O)[C@H](OC(=O)[C@H](O)[C@H](C)CC)[C@@]2(C)[C@@H](c3ccoc3)C[C@H]3O[C@]132 [MOMBASOL]	47.6	38.9	31.6	28.1							> 10	> 10	> 10	> 10	> 10
CC(=O)O[C@H]1[C@@H](OC(C)=O)[C@@]2(C)C3=CC[C@@H](c4ccoc4)[C@]3(C)CC[C@@H]2[C@@]2(C)[C@@H](O)C[C@@H](OC(C)=O)C(C)(C)[C@H]12	33.6	30.2	25.3	23.6							> 10	> 10	> 10	> 10	> 10
C/C=C(\C)C(=O)O[C@H]1C[C@@H](OC(C)=O)[C@@]2(C)CO[C@H]3[C@@H](O)[C@@]4(C)C5=C(C)[C@H](c6ccoc6)C[C@@H]5O[C@H](OC)C[C@@H]4[C@]1(C)[C@@H]32	97.9	91.4	63.8	59.6	92.8	79.8	68.2	39.7	20.5	25.8 (≈ 43.1 µM)	> 10	> 10	> 10	> 10	> 10
CO[C@H]1C[C@H]2[C@](C)(C3=C(C)[C@H](c4ccoc4)C[C@@H]3O1)[C@H](O)[C@@H]1OC[C@]3(C)[C@H](OC(C)=O)C[C@H](OC(=O)c4ccccc4)[C@@]2(C)[C@@H]13	41.5	30.9	15	19.3							> 10	> 10	> 10	> 10	> 10
C/C=C(\C)C(=O)O[C@H]1C[C@@H](OC(C)=O)[C@@]2(C)CO[C@H]3[C@@H](O)[C@@]4(C)C5=C(C)[C@H](c6ccoc6)C[C@@H]5OC=C[C@@H]4[C@]1(C)[C@@H]32	49.3	38.5	24.7	20.1							> 10	> 10	> 10	> 10	> 10
C=C1[C@@H]([C@@]2(C)[C@@H](OC(C)=O)CC(=O)O[C@](C)(COC(C)=O)[C@@H]2C(=O)OC)[C@@H](OC=O)[C@H](OC(=O)[C@H](O)[C@H](C)CC)[C@@]2(C)[C@H](c3ccoc3)CC(=O)[C@]12O [PRIEURIANIN]	75.9	68.1	45.7	41.6	70.5	39.3	35.6	11.7	3.5	44.4 (≈ 59.3 µM)	4.8	0.73	1	2.2	1.2
